# Results from patent publication US20140193827A1 (TEVA PHARMACEUTICAL INDUSTRIES, LTD., priority 2013, published 2014).
# Test system: GA-primed murine splenocytes
# Test: Tolerance method for assessing process variability
substance,measurement,setting,value
glatiramer acetate [GA],AVG expression CYHR1,probe ILMN_1228937,8.14
same,AVG expression MSN,probe ILMN_1229193,9.736
same,AVG expression OTTMUSG00000016644,probe ILMN_1229197,7.618
same,AVG expression ECM1,probe ILMN_1229746,6.806
same,AVG expression LTA,probe ILMN_1229804,8.009
same,AVG expression ST7,probe ILMN_1229827,7.737
same,AVG expression FCRLA,probe ILMN_1229840,9.907
same,AVG expression 4933437K13RIK,probe ILMN_1230045,9.824
same,AVG expression TPI1,probe ILMN_1230137,12.52
same,AVG expression BATF2,probe ILMN_1230143,6.446
same,AVG expression CLIC4,probe ILMN_1230546,11.15
same,AVG expression GM336,probe ILMN_1230605,7.6587
same,AVG expression LOC270152,probe ILMN_1231204,8.329
same,AVG expression TPI1,probe ILMN_1231447,7.938
same,AVG expression CCL5,probe ILMN_1231814,8.662
same,AVG expression THADA,probe ILMN_1232235,8.652
same,AVG expression ANK,probe ILMN_1232621,7.123
same,AVG expression MAD,probe ILMN_1232668,7.987
same,AVG expression GBP1,probe ILMN_1233293,11.66
same,AVG expression LOC100045981,probe ILMN_1233402,9.335
same,AVG expression IL2RA,probe ILMN_1233474,8.134
same,AVG expression C530027B15R1K,probe ILMN_1233501,8.684
same,AVG expression CD27,probe ILMN_1233589,8.296
same,AVG expression 1110014O20RIK,probe ILMN_1233987,9.906
same,AVG expression PPP3CC,probe ILMN_1233999,8.724
same,AVG expression SCL0002007.1_97,probe ILMN_1234020,8.904
same,AVG expression TMED8,probe ILMN_1234054,8.518
same,AVG expression IRGM1,probe ILMN_1234539,11.44
same,AVG expression TSPAN2,probe ILMN_1234698,7.426
same,AVG expression IGHA_J00475$V00785_IG_HEAVY—CONSTANT_ALPHA_135,probe ILMN_1234706,7.221
same,AVG expression AI790298,probe ILMN_1234746,6.873
same,AVG expression 4630004K05RIK,probe ILMN_1234973,6.972
same,AVG expression PROS1,probe ILMN_1235499,8.935
same,AVG expression A630072M18RIK,probe ILMN_1235926,8.781
same,AVG expression FCRLA,probe ILMN_1236111,11.88
same,AVG expression RAB11FIP4,probe ILMN_1236245,6.42
same,AVG expression E130302P19RIK,probe ILMN_1236354,7.244
same,AVG expression 5830496L11RIK,probe ILMN_1236507,9.309
same,AVG expression CAR1,probe ILMN_1236588,9.793
same,AVG expression SLC25A19,probe ILMN_1237074,11.68
same,AVG expression DDX25,probe ILMN_1237338,6.532
same,AVG expression IL7R,probe ILMN_1237567,6.244
same,AVG expression PFKP,probe ILMN_1237695,10.66
same,AVG expression AMPD1,probe ILMN_1237871,6.446
same,AVG expression AREG,probe ILMN_1238547,6.514
same,AVG expression C130086J11RIK,probe ILMN_1238725,7.188
same,AVG expression KDH,probe ILMN_1239055,7.064
same,AVG expression KLRE1,probe ILMN_1239346,6.805
same,AVG expression LOC100047934,probe ILMN_1239397,10.17
same,AVG expression 6430510M02RIK,probe ILMN_1239411,8.536
same,AVG expression CEACAM2,probe ILMN_1239472,6.786
same,AVG expression NG23,probe ILMN_1239632,8.463
same,AVG expression KIF1B,probe ILMN_1239729,7.517
same,AVG expression 6030400N17RIK,probe ILMN_1239797,6.341
same,AVG expression PRSS34,probe ILMN_1239878,6.278
same,AVG expression ANXA3,probe ILMN_1241171,8.239
same,AVG expression ADRB2,probe ILMN_1241610,8.974
same,AVG expression TCF7,probe ILMN_1242308,8.261
same,AVG expression CREM,probe ILMN_1242622,8.248
same,AVG expression AKAP8L,probe ILMN_1242769,9.971
same,AVG expression D630014A15RIK,probe ILMN_1242794,8.379
same,AVG expression A130010J15RIK,probe ILMN_1243150,8.875
same,AVG expression 2810410A03RIK,probe ILMN_1243249,10.13
same,AVG expression A130026C10RIK,probe ILMN_1243621,9.03
same,AVG expression B230369L08RIK,probe ILMN_1244343,9.9
same,AVG expression RASGRP2,probe ILMN_1244516,6.8
same,AVG expression LOC100044948,probe ILMN_1244853,11.36
same,AVG expression GBP5,probe ILMN_1244866,9.012
same,AVG expression SYNGR2,probe ILMN_1244874,10.87
same,AVG expression CST7,probe ILMN_1244891,7.709
same,AVG expression F730045P10RIK,probe ILMN_1245300,7.742
same,AVG expression HHEX,probe ILMN_1245731,9.543
same,AVG expression CD84,probe ILMN_1245754,6.93
same,AVG expression SIAT7C,probe ILMN_1246543,8.379
same,AVG expression C78339,probe ILMN_1246895,9.914
same,AVG expression BC004728,probe ILMN_1247198,10.36
same,AVG expression LOC100046770,probe ILMN_1247199,8.329
same,AVG expression IL3,probe ILMN_1247309,9.384
same,AVG expression CGEF2-PENDING,probe ILMN_1247893,8.11
same,AVG expression EMP3,probe ILMN_1248028,10.05
same,AVG expression FASL,probe ILMN_1248413,6.78
same,AVG expression C330023M02RIK,probe ILMN_1248651,8.865
same,AVG expression CD55,probe ILMN_1248714,8.2139
same,AVG expression GATA3,probe ILMN_1248843,8.224
same,AVG expression TBX6,probe ILMN_1249014,6.934
same,AVG expression BCL2,probe ILMN_1249021,8.748
same,AVG expression MPO,probe ILMN_1249030,8.41
same,AVG expression LOC100046608,probe ILMN_1249366,9.365
same,AVG expression TSSC6,probe ILMN_1249740,6.912
same,AVG expression IGF1R,probe ILMN_1249824,6.78
same,AVG expression IGHG,probe ILMN_1249975,8.895
same,AVG expression EIF2AK2,probe ILMN_1250410,10.06
same,AVG expression C730026J16,probe ILMN_1251984,9.459
same,AVG expression LYZ2,probe ILMN_1252076,8.645
same,AVG expression LOC100038894,probe ILMN_1252295,6.989
same,AVG expression WDR9,probe ILMN_1252496,7.625
same,AVG expression ACAT2,probe ILMN_1253008,9.341
same,AVG expression HS3ST1,probe ILMN_1253182,8.805
same,AVG expression DAPP1,probe ILMN_1253354,8.474
same,AVG expression WARS,probe ILMN_1254157,10.36
same,AVG expression NISCH,probe ILMN_1254218,10.29
same,AVG expression 4931429I11RIK,probe ILMN_1254314,6.757
same,AVG expression LMNA,probe ILMN_1254405,8.835
same,AVG expression AI607873,probe ILMN_1254577,7.533
same,AVG expression ACPL2,probe ILMN_1254634,7.573
same,AVG expression SYPL,probe ILMN_1254669,10.85
same,AVG expression EG240327,probe ILMN_1254685,7.154
same,AVG expression LMNA,probe ILMN_1255510,9.57
same,AVG expression IL6RA,probe ILMN_1255743,7.478
same,AVG expression KLRD1,probe ILMN_1255860,8.506
same,AVG expression LOC100047261,probe ILMN_1256219,11.14
same,AVG expression PML,probe ILMN_1256356,10.68
same,AVG expression MCOLN3,probe ILMN_1256430,6.748
same,AVG expression SLC6A12,probe ILMN_1256644,6.942
same,AVG expression LOC100043821,probe ILMN_1257107,10.78
same,AVG expression SLC37A1,probe ILMN_1257444,7.908
same,AVG expression LOC638301,probe ILMN_1257771,9.6
same,AVG expression A130095K04RIK,probe ILMN_1257803,6.146
same,AVG expression D230004N01RIK,probe ILMN_1258197,8.362
same,AVG expression DOK3,probe ILMN_1258357,11.45
same,AVG expression 5430434G16RIK,probe ILMN_1258364,8.61
same,AVG expression LOC100044376,probe ILMN_1258587,9.335
same,AVG expression BC106179,probe ILMN_1258864,7.749
same,AVG expression TMEM66,probe ILMN_1258965,10.41
same,AVG expression NME7,probe ILMN_1259075,8.301
same,AVG expression SCIN,probe ILMN_1259174,9.64
same,AVG expression SFT2D2,probe ILMN_1260046,10.2783
same,AVG expression USP18,probe ILMN_2054914,8.225
same,AVG expression ADCY7,probe ILMN_2163572,8.002
same,AVG expression TNFRSF18,probe ILMN_2419490,11.07
same,AVG expression TNFR5F18,probe ILMN_2419494,10.8
same,AVG expression BRWD1,probe ILMN_2421220,7.59
same,AVG expression UBD,probe ILMN_2426853,8.138
same,AVG expression XBP1,probe ILMN_2431237,12.27
same,AVG expression LOC100048346,probe ILMN_2433990,9.203
same,AVG expression SCL0002069.1_48,probe ILMN_2443164,8.113
same,AVG expression MACF1,probe ILMN_2444984,7.707
same,AVG expression TNFRSF9,probe ILMN_2445789,8.963
same,AVG expression TNFRSF4,probe ILMN_2446559,10.65
same,AVG expression IBRDC3,probe ILMN_2447712,7.79
same,AVG expression MAP4K2,probe ILMN_2449150,9.206
same,AVG expression DUSP4,probe ILMN_2450767,8.696
same,AVG expression 6720418B01RIK,probe ILMN_2454823,7.844
same,AVG expression A830080H07RIK,probe ILMN_2457437,9.842
same,AVG expression MAML2,probe ILMN_2457571,8.504
same,AVG expression AHNAK,probe ILMN_2458765,8.464
same,AVG expression ADAMTSL4,probe ILMN_2459899,8.039
same,AVG expression WNT10A,probe ILMN_2460094,7.099
same,AVG expression BAMBI-PS1,probe ILMN_2467190,7.445
same,AVG expression 1110059G02RIK,probe ILMN_2473692,6.85
same,AVG expression 5830411I20,probe ILMN_2474052,10.05
same,AVG expression CPM,probe ILMN_2476452,6.679
same,AVG expression 1700052O22R1K,probe ILMN_2481117,9.816
same,AVG expression 2210408F11RIK,probe ILMN_2483811,10.42
same,AVG expression 2010005O13RIK,probe ILMN_2488997,9.797
same,AVG expression PKIB,probe ILMN_2490076,7.096
same,AVG expression TRIO,probe ILMN_2491741,6.611
same,AVG expression WISP1,probe ILMN_2492264,6.711
same,AVG expression AA536717,probe ILMN_2492284,6.484
same,AVG expression 2310043N10RIK,probe ILMN_2493030,9.383
same,AVG expression UGT1A10,probe ILMN_2493826,6.49
same,AVG expression 9430080K19RIK,probe ILMN_2500370,10.17
same,AVG expression EG330070,probe ILMN_2504447,6.499
same,AVG expression A130090K04RIK,probe ILMN_2506039,8.137
same,AVG expression 7530404M11RIK,probe ILMN_2507761,7.426
same,AVG expression NME7,probe ILMN_2510694,7.434
same,AVG expression 1110046J11RIK,probe ILMN_2513451,10.16
same,AVG expression 7530408C15RIK,probe ILMN_2517611,7.035
same,AVG expression PLA2G12A,probe ILMN_2518483,6.955
same,AVG expression 2010016118RIK,probe ILMN_2520264,7.54
same,AVG expression 3010031K01RIK,probe ILMN_2522460,9.234
same,AVG expression TRIO,probe ILMN_2522750,8.588
same,AVG expression 4930597A21RIK,probe ILMN_2524763,7.674
same,AVG expression CHI3L4,probe ILMN_2524865,7.454
same,AVG expression LOC240672,probe ILMN_2531737,8.095
